Measurements: patent US11542255B2, “Sulfonylureas and sulfonylthioureas as NLRP3 inhibitors” (Inflazome Limited, priority 2017, dated 2023)
Structures can show the parent of a compound that is named as a salt.

target: T1, NLRP3 (Homo sapiens, UniProt Q96P20); experiment: THP-1 cells pyroptosis assay (LPS + nigericin, resazurin readout); format: cell-based; set-up: Seed THP-1 cells (25,000 cells/well) containing 1.0 μg/ml LPS in 40 μl of RPMI medium; host or cells: THP-1 cells; details: NLRP3 inhibitory activity, 1.0 μg/ml LPS, 5 μM nigericin
Description: THP-1 cells (ATCC #TIB-202) were grown in RPMI containing L-glutamine (Gibco #11835) supplemented with 1 mM sodium pyruvate (Sigma #S8636) and penicillin (100 units/ml)/streptomycin (0.1 mg/ml) (Sigma #P4333) in 10% Fetal Bovine Serum (FBS) (Sigma #F0804). The cells were routinely passaged and grown to confluency (˜10^6 cells/ml). On the day of the experiment, THP-1 cells were harvested and resuspended into RPMI medium (without FBS). The cells were then counted and viability (>90%) checked by Trypan blue (Sigma #T8154). Appropriate dilutions were made to give a concentration of 625,000 cells/ml. To this diluted cell solution was added LPS (Sigma #L4524) to give a […] Final Assay Concentration (FAC). 40 μl of the final preparation was aliquoted into each well of a 96-well plate. The plate thus prepared was used for compound screening.
The following method step-by-step assay was followed for compound screening. • 1. Seed THP-1 cells (25,000 cells/well) containing 1.0 μg/ml LPS in 40 μl of RPMI medium (without FBS) in 96-well, black walled, clear bottom cell culture plates coated with poly-D-lysine (VWR #734-0317) • 2. Add 5 μl compound (8 points half-log dilution, with 10 μM top dose) or vehicle (DMSO 0.1% FAC) to the appropriate wells • 3. Incubate for 3 hrs at 37° C. in 5% CO2 • 4. Add 5 μl nigericin (Sigma #N7143) (FAC 5 μM) to all wells • 5. Incubate for 1 hr at 37° C. and 5% CO2 • 6. At the end of the incubation period, spin plates at 300×g for 3 mins and remove supernatant • 7. Then add 50 μl of resazurin (Sigma #R7017) (FAC 100 μM resazurin in RPMI medium without FBS) and incubate plates for a further 1-2 hrs at 37° C. and 5% CO2 • 8. Plates were read in an Envision reader at Ex 560 nm and Em 590 nm • 9. IC50 data is fitted to a non-linear regression equation (log inhibitor vs response-variable slope 4-parameters)

T1 sequence (Q96P20 whole entry): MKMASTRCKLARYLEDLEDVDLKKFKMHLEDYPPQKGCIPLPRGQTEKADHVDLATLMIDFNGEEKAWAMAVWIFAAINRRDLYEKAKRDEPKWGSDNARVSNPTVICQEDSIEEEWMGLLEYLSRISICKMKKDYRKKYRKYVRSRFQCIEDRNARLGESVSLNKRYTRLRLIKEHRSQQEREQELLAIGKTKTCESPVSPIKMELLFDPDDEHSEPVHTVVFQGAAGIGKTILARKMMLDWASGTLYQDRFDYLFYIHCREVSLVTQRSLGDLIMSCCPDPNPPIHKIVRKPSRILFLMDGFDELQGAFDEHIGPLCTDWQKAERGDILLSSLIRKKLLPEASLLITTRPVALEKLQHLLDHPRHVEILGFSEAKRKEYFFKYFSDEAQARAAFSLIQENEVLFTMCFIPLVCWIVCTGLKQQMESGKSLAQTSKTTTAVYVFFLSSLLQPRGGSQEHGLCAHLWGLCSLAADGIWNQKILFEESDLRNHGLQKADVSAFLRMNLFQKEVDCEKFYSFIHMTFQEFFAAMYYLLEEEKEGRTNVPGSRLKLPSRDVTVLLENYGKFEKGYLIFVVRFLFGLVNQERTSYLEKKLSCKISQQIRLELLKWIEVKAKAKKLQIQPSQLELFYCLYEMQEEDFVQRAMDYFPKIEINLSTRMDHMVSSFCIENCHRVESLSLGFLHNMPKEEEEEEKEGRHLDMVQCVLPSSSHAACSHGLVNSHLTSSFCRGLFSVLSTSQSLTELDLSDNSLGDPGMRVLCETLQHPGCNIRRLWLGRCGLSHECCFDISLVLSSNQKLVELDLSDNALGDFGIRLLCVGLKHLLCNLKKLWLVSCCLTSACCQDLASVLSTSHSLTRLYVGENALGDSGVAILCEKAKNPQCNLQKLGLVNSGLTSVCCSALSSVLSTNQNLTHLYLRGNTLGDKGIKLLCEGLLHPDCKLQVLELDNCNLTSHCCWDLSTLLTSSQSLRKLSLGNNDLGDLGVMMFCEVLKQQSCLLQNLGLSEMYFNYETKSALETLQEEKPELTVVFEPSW

Compound | IC50 [nM]
CC(c1cc(S(=O)(=O)NC(=O)Nc2c3c(cc4c2CCC4)CCC3)nn1C)N1CCC1 (single isomer, unassigned; enantiomer 1) [Example 26, 5-(1-(Azetidin-1-yl)ethyl)-N-((1,2,3,5,6,7-hexahydro-s-indacen-4-yl)carbamoyl)-1-methyl-1H-pyrazole-3-sulfonamide, Sodium Salt (Enantiomer 1)] | 40 to 160
CCC(c1cc(S(=O)(=O)NC(=O)Nc2c3c(cc4c2CCC4)CCC3)nn1C)N(C)C (single isomer, unassigned; enantiomer 1) [Example 71, 5-(1-(Dimethylamino)propyl)-N-((1,2,3,5,6,7-hexahydro-s-indacen-4-yl)carbamoyl)-1-methyl-1H-pyrazole-3-sulfonamide, Enantiomer 1] | < 40
CC(c1cc(S(=O)(=O)NC(=O)Nc2c3c(cc4c2CCC4)CCC3)nn1C)N(C)C (single isomer, unassigned; enantiomer 2) [Example 70, 5-(1-(Dimethylamino)ethyl)-N-((1,2,3,5,6,7-hexahydro-s-indacen-4-yl)carbamoyl)-1-methyl-1H-pyrazole-3-sulfonamide, Enantiomer 2] | < 40
CNCCn1nc(S(=O)(=O)NC(=O)Nc2c3c(cc4c2CCC4)CCC3)cc1C(=O)O [Example 2, 3-(N-((1,2,3,5,6,7-Hexahydro-s-indacen-4-yl)carbamoyl)sulfamoyl)-1-(2-(methylamino)ethyl)-1H-pyrazole-5-carboxylic Acid] | 2560 to 10000
CN1CC(N(C)Cc2cc(S(=O)(=O)NC(=O)Nc3c4c(cc5c3CCC5)CCC4)nn2C)C1 [Example 8, N-((1,2,3,5,6,7-Hexahydro-s-indacen-4-yl)carbamoyl)-1-methyl-5-((methyl(1-methylazetidin-3-yl)amino)methyl)-1H-pyrazole-3-sulfonamide, Sodium Salt] | 160 to 640
CC(C)c1cc(F)cc(C(C)C)c1NC(=O)NS(=O)(=O)c1cc(CN(C)C2CN(C)C2)n(C)n1 [Example 9, N-((4-Fluoro-2,6-diisopropylphenyl)carbamoyl)-1-methyl-5-((methyl(1-methylazetidin-3-yl)amino)methyl)-1H-pyrazole-3-sulfonamide, Sodium Salt] | 2560 to 10000
CCn1nc(S(=O)(=O)NC(=O)Nc2c(Br)ccc3c2CCC3)cc1CN(C)C [Example 16, N-((5-Bromo-2,3-dihydro-1H-inden-4-yl)carbamoyl)-5-((dimethylamino)methyl)-1-ethyl-1H-pyrazole-3-sulfonamide] | 640 to 2560
CC(C)n1nc(S(=O)(=O)[N-]C(=O)Nc2c3c(cc4c2CCC4)CCC3)cc1C(C)[N+](C)(C)C (stereo not shown) [Example 18, ((1,2,3,5,6,7-Hexahydro-s-indacen-4-yl)carbamoyl)((1-isopropyl-5-(1-(trimethylammonio)ethyl)-1H-pyrazol-3-yl)sulfonyl)amide] | 640 to 2560
CC(c1cc(S(=O)(=O)[N-]C(=O)Nc2c3c(cc4c2CCC4)CCC3)nn1C)[N+](C)(C)C (stereo not shown) [Example 19, ((1,2,3,5,6,7-Hexahydro-s-indacen-4-yl)carbamoyl)((1-methyl-5-(1-(trimethylammonio)ethyl)-1H-pyrazol-3-yl)sulfonyl)amide] | 640 to 2560
CC(C)c1cc(F)cc(-c2ccnc(C(N)=O)c2)c1NC(=O)NS(=O)(=O)c1cc(CN(C)C)n(C)n1 [Example 28, 4-(2-(3-((5-((Dimethylamino)methyl)-1-methyl-1H-pyrazol-3-yl)sulfonyl)ureido)-5-fluoro-3-isopropylphenyl)picolinamide] | 640 to 2560
CC(C)c1cc(F)cc(-c2cncnc2)c1NC(=O)NS(=O)(=O)c1cc(CN(C)C)n(C(C)C)n1 [Example 42, 5-((Dimethylamino)methyl)-N-((4-fluoro-2-isopropyl-6-(pyrimidin-5-yl)phenyl)carbamoyl)-1-isopropyl-1H-pyrazole-3-sulfonamide] | 640 to 2560
CC(C)c1cc(F)cc(-c2cncnc2)c1NC(=O)NS(=O)(=O)c1cc(CN(C)C)n(C)n1 [Example 43, 5-((Dimethylamino)methyl)-N-((4-fluoro-2-isopropyl-6-(pyrimidin-5-yl)phenyl)carbamoyl)-1-methyl-1H-pyrazole-3-sulfonamide] | 640 to 2560
CC(C)c1cc(F)cc(C(C)C)c1NC(=O)NS(=O)(=O)c1cc(CN(C)C)n(C(C)C)n1 [Example 61, 5-((Dimethylamino)methyl)-N-((4-fluoro-2,6-diisopropylphenyl)carbamoyl)-1-isopropyl-1H-pyrazole-3-sulfonamide] | 160 to 640
CN(Cc1cc(S(=O)(=O)NC(=O)Nc2c3c(cc4c2CCC4)CCC3)nn1C)C1CC1 [Example 85, 5-((Cyclopropyl(methyl)amino)methyl)-N-((1,2,3,5,6,7-hexahydro-s-indacen-4-yl)carbamoyl)-1-methyl-1H-pyrazole-3-sulfonamide, Sodium Salt] | 160 to 640
CC(C)c1cc(F)cc(C(C)C)c1NC(=O)NS(=O)(=O)c1cc(CN(C)C2CC2)n(C)n1 [Example 87, 5-((Cyclopropyl(methyl)amino)methyl)-N-((4-fluoro-2,6-diisopropylphenyl)carbamoyl)-1-methyl-1H-pyrazole-3-sulfonamide, sodium Salt] | 640 to 2560
CN(Cc1cc(S(=O)(=O)NC(=O)Nc2c3c(cc4c2CCC4)CCC3)nn1C)CC(F)(F)F [Example 97, N-((1,2,3,5,6,7-Hexahydro-s-indacen-4-yl)carbamoyl)-1-methyl-5-((methyl(2,2,2-trifluoroethyl)amino)methyl)-1H-pyrazole-3-sulfonamide, Sodium Salt] | 160 to 640
COCCN(C)Cc1cc(S(=O)(=O)NC(=O)Nc2c(C(C)C)cc(F)cc2C(C)C)nn1C [Example 118, N-((4-Fluoro-2,6-diisopropylphenyl)carbamoyl)-5-(((2-methoxyethyl)(methyl)amino)methyl)-1-methyl-1H-pyrazole-3-sulfonamide, Sodium Salt] | 640 to 2560
CC(C)c1cc(Cl)cc(C(C)C)c1NC(=O)NS(=O)(=O)c1cc(CN2CCOCC2)n(C)n1 [Example 120, N-((4-Chloro-2,6-diisopropylphenyl)carbamoyl)-1-methyl-5-(morpholinomethyl)-1H-pyrazole-3-sulfonamide, Sodium Salt] | 640 to 2560
Cn1nc(S(=O)(=O)NC(=O)Nc2c3c(cc4c2CCC4)CCC3)cc1CN1CCOCC1 [Example 121, N-((1,2,3,5,6,7-Hexahydro-s-indacen-4-yl)carbamoyl)-1-methyl-5-(morpholinomethyl)-1H-pyrazole-3-sulfonamide] | 640 to 2560
CC(C)c1cc(Cl)cc(C(C)C)c1NC(=O)NS(=O)(=O)c1cc(C(=O)N(C)CC#N)n(C)n1 [Example 130, 3-(N-((4-Chloro-2,6-diisopropylphenyl)carbamoyl)sulfamoyl)-N-(cyanomethyl)-N,1-dimethyl-1H-pyrazole-5-carboxamide] | 640 to 2560
CN(C)Cc1nc(S(=O)(=O)NC(=O)Nc2c3c(cc4c2CCC4)CCC3)cn1C [Example 167, 2-((Dimethylamino)methyl)-N-((1,2,3,5,6,7-hexahydro-s-indacen-4-yl)carbamoyl)-1-methyl-1H-imidazole-4-sulfonamide] | 2560 to 10000
CCn1nc(S(=O)(=O)NC(=O)Nc2c(-c3cccc(OC)c3)ccc3c2CCC3)cc1CN(C)C [Example 182] | 640 to 2560

target: T1, NLRP3; experiment: Human whole blood IL1β release assay (LPS + nigericin, AlphaLisa IL-1β); format: cell-based; set-up: Human whole blood in Li-heparin tubes was obtained from healthy donors from a volunteer donor panel; from tissue; host or cells: human whole blood from healthy donors; details: NLRP3 inhibitory activity, 1 μg/ml LPS, 10 μM nigericin, IL-1β release, read-out: HWB IC50
Description: For systemic delivery, the ability to inhibit NLRP3 when the compounds are present within the bloodstream is of great importance. For this reason, the NLRP3 inhibitory activity of a number of compounds in human whole blood was investigated in accordance with the following protocol.
Human whole blood in Li-heparin tubes was obtained from healthy donors from a volunteer donor panel. • 1. Plate out 80 μl of whole blood containing 1 μg/ml of LPS in 96-well, clear bottom cell culture plate (Corning #3585) • 2. Add 10 μl compound (8 points half-log dilution with 10 μM top dose) or vehicle (DMSO 0.1% FAC) to the appropriate wells • 3. Incubate for 3 hrs at 37° C., 5% CO2 • 4. Add 10 μl Nigericin (Sigma #N7143) (10 μM FAC) to all wells • 5. Incubate for 1 hr at 37° C., 5% CO2 • 6. At the end of the incubation period, spin plates at 300×g for 5 mins to pellet cells and remove 20 μl of supernatant and add to 96-well v-bottom plates for IL-1β analysis (note: these plates containing the supernatants can be stored at −80° C. to be analysed at a later date) • 7. IL-1β was measured according to the manufacturer protocol (Perkin Elmer-AlphaLisa IL-1β Kit AL220F-5000) • 8. IC50 data is fitted to a non-linear regression equation (log inhibitor vs response-variable slope 4-parameters)

Compound | IC50 [nM]
CC(c1cc(S(=O)(=O)NC(=O)Nc2c3c(cc4c2CCC4)CCC3)nn1C)N1CCC1 (single isomer, unassigned; enantiomer 1) [Example 26, 5-(1-(Azetidin-1-yl)ethyl)-N-((1,2,3,5,6,7-hexahydro-s-indacen-4-yl)carbamoyl)-1-methyl-1H-pyrazole-3-sulfonamide, Sodium Salt (Enantiomer 1)] | < 400
CCC(c1cc(S(=O)(=O)NC(=O)Nc2c3c(cc4c2CCC4)CCC3)nn1C)N(C)C (single isomer, unassigned; enantiomer 1) [Example 71, 5-(1-(Dimethylamino)propyl)-N-((1,2,3,5,6,7-hexahydro-s-indacen-4-yl)carbamoyl)-1-methyl-1H-pyrazole-3-sulfonamide, Enantiomer 1] | < 400
CC(c1cc(S(=O)(=O)NC(=O)Nc2c3c(cc4c2CCC4)CCC3)nn1C)N(C)C (single isomer, unassigned; enantiomer 2) [Example 70, 5-(1-(Dimethylamino)ethyl)-N-((1,2,3,5,6,7-hexahydro-s-indacen-4-yl)carbamoyl)-1-methyl-1H-pyrazole-3-sulfonamide, Enantiomer 2] | < 400
